Measured values reported in patent US8846013B2, “Topical application of 1-hydroxyl-3,5-BIS(4′hydroxy styryl)benzene” (Johnson & Johnson Consumer Companies, Inc., priority 2012, dated 2014).

Experiments:
[1] = test system: Elastin; assay: Induction of Elastin gene expression in primary human dermal fibroblasts (quantitative PCR); assay type: cell-based; conditions: summary statement
Description: (§1) Primary human dermal fibroblasts (Lifeline Cell Technologies, Frederick, Md.) were grown until confluence in DMEM media (Invitrogen/Life Technologies, Carlsbad, 10 CA) with 10% FBS and 1% Penicillin-Streptomycin on 24 well tissue culture plates, followed by treatment with 1-hydroxyl 3,5-bis(4′hydroxyl styryl)benzene (0.1 ug/mL) with and without TNF-a for 48 hr. Post-treatment, cells were lysed using RLT buffer and total RNA was isolated using the RNeasy Mini Kit (Qiagen, Valencia, Calif.). Quantitative PCR was performed using the Gene Amp PCR System 9700 and 7500 Real Time PCR 15 System cycler (Applied Biosystems)/Life Technologies, Carlsbad, Calif.). Elastin (Qiagen) and Collagen1α1 primers (custom sequence-sense: 5′-TCC-CCA-GCT-GTC-TTA-TGG CT-3′ (SEQ ID NO: 1) and anti-sense: 5′-CAG-GCA-CGG-AAA-TTC-CTC-C-3′ (SEQ ID NO: 2)) were used. The housekeeping gene GAPDH was used for normalization (custom primer sequence: F 5′-ATC-TCT-GCC-CCC-TCT-GCT-G-3′ (SEQ ID NO: 3) and R 5′-ATG-GTT-CAC-ACC-CAT-GAC-GA-3′ (SEQ ID NO: 4); Invitrogen/Life Technologies, Carlsbad, Calif.). Fold-changes in PCR (normalized to 5 GAPDH) were calculated from untreated.

[2] = test system: Collagen 1A; assay: Induction of Collagen1A gene expression in primary human dermal fibroblasts (quantitative PCR); assay type: cell-based; conditions: for Collagen 1A Normalized Fold-change in PCR (Mean): 48 hr, normalized to GAPDH, from untreated
Description: as §1

[3] = test system: MMP-9; assay: Inhibition of TNF-α-induced MMP-9 levels in epidermal equivalents (EPI 200 HCF); assay type: cell-based, human; conditions: summary statement
Description: The ability of 1-hydroxyl 3,5-bis(4′hydroxyl styryl)benzene to inhibit TNF-a induced MMP-9 levels was tested at different concentrations as follows. The formation of TNF-α induced MMP-9 is involved in the undesirable breakdown of extracellular matrix in human skin.
Epidermal equivalents (EPI 200 HCF) were purchased from MatTek (Ashland, Mass.). Upon receipt, the epidermal equivalents were incubated for 24 hours at 37° C. in maintenance medium without hydrocortisone. The equivalents were topically treated (2 mg/cm^2) with 1-hydroxyl 3,5-bis(4′hydroxyl styryl)benzene extracts in a 70% ethanol/30% propylene glycol vehicle 2 hours before treatment with TNF-α (100 ng/mL). the equivalents were incubated for 48 hours at 37° C. with maintenance medium then supernatants were analyzed for MMP-9 using commercially available kits (R&D Systems, Minneapolis, Minn.).

[4] = test system: IL-8 cytokine release; assay: Anti-inflammatory activity: IL-8 cytokine release from UV-exposed epidermal equivalents (EPI 200 HCF); assay type: cell-based, human; conditions: summary statement
Description: The topical anti-inflammatory activities of 1-hydroxyl 3,5-bis(4′hydroxyl styryl)benzene and its piperazine salt were evaluated as follows.
Epidermal equivalents (EPI 200 HCF), multilayer and differentiated epidermis consisting of normal human epidermal keratinocytes, were purchased from MatTek (Ashland, Mass.). Upon receipt, epidermal equivalents were incubated for 24 hours at 37° C. in maintenance medium without hydrocortisone. Equivalents were topically treated (2 mg/cm^2) with 1-hydroxyl 3,5-bis(4′hydroxyl styryl)benzene thereof in a 70:30 Ethanol-Propylene glycol vehicle two hours before exposure to solar ultraviolet light (1000W-Oriel solar simulator equipped with a 1-mm Schott WG 320 filter; UV dose applied: 70 kJ/m^2 as measured at 360 nm). The equivalents were incubated for 24 hours at 37° C. with maintenance medium then supernatants were analyzed for IL-8 cytokine release using commercially available kits (Millipore Corp., Billerica, Mass.).

Compound | expression of genes associated with elastin production (in words) [1] | Collagen 1A Normalized Fold-change in PCR (Mean) ([2]; 0.1 ug/mL with TNF-α (10 ng/mL)) | Collagen 1A Normalized Fold-change in PCR (Mean) ([2]; 0.1 ug/mL, without TNF-a) | expression of genes associated with collagen production (in words) ([2]; summary statement) | formation of TNF-α induced MMP-9 (in words) [3] | reduction in UV-induced inflammation in human skin cells (in words) [4]
Oc1ccc(/C=C/c2cc(O)cc(/C=C/c3ccc(O)cc3)c2)cc1 [1-hydroxyl 3,5-bis(4′hydroxylstyryl)benzene] | increased | 1.36 | 2.96 | increased | inhibited | strong reduction
Oc1ccc(C=Cc2cc(O)cc(C=Cc3ccc(O)cc3)c2)cc1 [1-hydroxyl 3,5-bis(4′hydroxylstyryl)benzene] | – | – | – | – | – | strong reduction
